The series relates to cancer cells. The series can be described thus: MTT cytotoxic assay of esterification products (Cytotoxicity activity). The note with it: compounds isolated with HPLC. In kind it is cell-based, human. Put shortly: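 Cytotoxicity was read by MTT (Carmichael method, modified), with cells seeded 24 h ahead of treatment. Sixteen human cancer lines spanning bone, lung, bladder, ovary, colon, pancreas, prostate, skin, mouth, kidney, breast, liver, brain, leukemia and cervix were used. Test samples were acyl chloride esterification products of triterpenes, as mixtures or HPLC-purified compounds.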
Background: Tetrazolium assays rely on reduction of a dye to a coloured formazan, in cell work by metabolically active cells.

The mark [1] stands for this setting: E4A esterified with Acetyl chloride (Acy = Acetyl).
Setting [2] is: E4A esterified with Crotonoyl chloride (Cro = Crotonoyl).

For 47 compounds, Cytotoxicity activity results are on record in patent US20230340012A1, “NATURAL AND SYNTHETIC COMPOUNDS FOR TREATING CANCER AND OTHER DISEASES” (PACIFIC ARROW LIMITED, priority 2009, published 2023).

The structures appear in SMILES notation.

Take `CC(=O)OCC1(C)C(O)CCC2(C)C1CCC1(C)C2CC=C2C3CC(C)(C)C(OC(C)=O)C(OC(C)=O)C3(COC(C)=O)C(OC(C)=O)CC21C` (centres unmarked) [Compound H16]: the Cytotoxicity activity entry under setting [1] was “weak”. For `CC(=O)OCC1(C)C(OC(C)=O)CCC2(C)C1CCC1(C)C2CC=C2C3CC(C)(C)C(OC(C)=O)C(O)C3(COC(C)=O)C(OC(C)=O)CC21C` (centres unmarked) [Compound H17], the Cytotoxicity activity entry under setting [1] is “weak”.

In the case of `CC(=O)OCC1(C)C(OC(C)=O)CCC2(C)C1CCC1(C)C2CC=C2C3CC(C)(C)C(O)C(OC(C)=O)C3(COC(C)=O)C(OC(C)=O)CC21C` (centres unmarked) [Compound H18], the Cytotoxicity activity result under setting [1] is “weak”. For the compound `CC(=O)OCC1(C)C(OC(C)=O)CCC2(C)C1CCC1(C)C2CC=C2C3CC(C)(C)C(OC(C)=O)C(OC(C)=O)C3(COC(C)=O)C(OC(C)=O)CC21C` (centres unmarked) [Compound H19], the Cytotoxicity activity result under setting [1] was “none”.

Turning to `CC(=O)OCC12C(O)CC3(C)C(=CCC4C5(C)CCC(O)C(C)(CO)C5CCC43C)C1CC(C)(C)C(OC(C)=O)C2OC(C)=O` (centres unmarked) [Compound H20], the Cytotoxicity activity result under setting [1] is listed as “moderate”. Take `CC(=O)OCC1(C)C(O)CCC2(C)C1CCC1(C)C2CC=C2C3CC(C)(C)C(OC(C)=O)C(OC(C)=O)C3(CO)C(O)CC21C` (centres unmarked) [Compound H21]: the Cytotoxicity activity entry under setting [1] is on record as “moderate”. For the compound `CC(=O)OC1C(OC(C)=O)C2(CO)C(OC(C)=O)CC3(C)C(=CCC4C5(C)CCC(O)C(C)(CO)C5CCC43C)C2CC1(C)C` (centres unmarked) [Compound H22], the Cytotoxicity activity result under setting [1] is reported as “moderate”. With `CC(=O)OC1C(OC(C)=O)C2(CO)C(O)CC3(C)C(=CCC4C5(C)CCC(OC(C)=O)C(C)(CO)C5CCC43C)C2CC1(C)C` (centres unmarked) [Compound H23], under setting [1], the Cytotoxicity activity result is given as “moderate”. As to `CC(=O)OC1C(OC(C)=O)C2(CO)C(O)CC3(C)C(=CCC4C5(C)CCC(O)C(C)(CO)C5CCC43C)C2CC1(C)C` (centres unmarked) [Compound H24], under setting [1], the Cytotoxicity activity entry was “moderate”. As to `CC(=O)OCC12C(O)CC3(C)C(=CCC4C5(C)CCC(O)C(C)(CO)C5CCC43C)C1CC(C)(C)C(OC(C)=O)C2O` (centres unmarked) [Compound H25], the Cytotoxicity activity result under setting [1] is on record as “moderate”. As for `CC(=O)OCC12C(O)CC3(C)C(=CCC4C5(C)CCC(O)C(C)(CO)C5CCC43C)C1CC(C)(C)C(O)C2OC(C)=O` (centres unmarked) [Compound H26], the Cytotoxicity activity entry under setting [1] is “moderate”.

In the case of `CC(=O)OCC12C(O)CC3(C)C(=CCC4C5(C)CCC(OC(C)=O)C(C)(CO)C5CCC43C)C1CC(C)(C)C(O)C2O` (centres unmarked) [Compound H27], the Cytotoxicity activity result under setting [1] is recorded as “moderate”. Take `CC(=O)OCC12C(OC(C)=O)CC3(C)C(=CCC4C5(C)CCC(O)C(C)(CO)C5CCC43C)C1CC(C)(C)C(O)C2O` (centres unmarked) [Compound H28]: the Cytotoxicity activity entry under setting [1] was “moderate”. Same read-out and setting: the same measure for `CC(=O)OCC1(C)C(O)CCC2(C)C1CCC1(C)C2CC=C2C3CC(C)(C)C(OC(C)=O)C(O)C3(CO)C(O)CC21C` (centres unmarked) [Compound H29]: “moderate”; for `CC(=O)OCC1(C)C(O)CCC2(C)C1CCC1(C)C2CC=C2C3CC(C)(C)C(O)C(OC(C)=O)C3(CO)C(O)CC21C` (centres unmarked) [Compound H30]: “moderate”. On to `CC(=O)OCC1(C)C(OC(C)=O)CCC2(C)C1CCC1(C)C2CC=C2C3CC(C)(C)C(O)C(O)C3(CO)C(O)CC21C` (centres unmarked) [Compound H31], for which the Cytotoxicity activity entry under setting [1] was “moderate”.

With `CC(=O)OCC1(C)C(O)CCC2(C)C1CCC1(C)C2CC=C2C3CC(C)(C)C(O)C(O)C3(CO)C(OC(C)=O)CC21C` (centres unmarked) [Compound H32], under setting [1], the Cytotoxicity activity entry is reported as “moderate”.

On to `CC=CC(=O)OCC1(C)C(O)CCC2(C)C1CCC1(C)C2CC=C2C3CC(C)(C)C(O)C(O)C3(CO)C(O)CC21C` (centres unmarked) [Compound I1], for which the Cytotoxicity activity entry under setting [2] is on record as “moderate”. Consider `CC=CC(=O)OCC12C(O)CC3(C)C(=CCC4C5(C)CCC(O)C(C)(CO)C5CCC43C)C1CC(C)(C)C(O)C2O` (centres unmarked) [Compound I2], for which the Cytotoxicity activity entry under setting [2] was “moderate”. On to `CC=CC(=O)OCC1(C)C(O)CCC2(C)C1CCC1(C)C2CC=C2C3CC(C)(C)C(O)C(O)C3(COC(=O)C=CC)C(O)CC21C` (centres unmarked) [Compound I3], for which the Cytotoxicity activity result under setting [2] is reported as “strong”. Turning to `CC=CC(=O)OCC1(C)C(O)CCC2(C)C1CCC1(C)C2CC=C2C3CC(C)(C)C(OC(=O)C=CC)C(O)C3(COC(=O)C=CC)C(O)CC21C` (centres unmarked) [Compound I4], the Cytotoxicity activity entry under setting [2] is “moderate”. For the compound `CC=CC(=O)OCC1(C)C(O)CCC2(C)C1CCC1(C)C2CC=C2C3CC(C)(C)C(O)C(OC(=O)C=CC)C3(COC(=O)C=CC)C(O)CC21C` (centres unmarked) [Compound I5], the Cytotoxicity activity entry under setting [2] is recorded as “moderate”. `CC=CC(=O)OCC1(C)C(OC(=O)C=CC)CCC2(C)C1CCC1(C)C2CC=C2C3CC(C)(C)C(O)C(O)C3(COC(=O)C=CC)C(O)CC21C` (centres unmarked) [Compound I6]: under setting [2], the Cytotoxicity activity result is recorded as “moderate”. Regarding `CC=CC(=O)OCC1(C)C(O)CCC2(C)C1CCC1(C)C2CC=C2C3CC(C)(C)C(O)C(O)C3(COC(=O)C=CC)C(OC(=O)C=CC)CC21C` (centres unmarked) [Compound I7], the Cytotoxicity activity result under setting [2] is “moderate”. Take `CC=CC(=O)OCC1(C)C(O)CCC2(C)C1CCC1(C)C2CC=C2C3CC(C)(C)C(OC(=O)C=CC)C(OC(=O)C=CC)C3(COC(=O)C=CC)C(O)CC21C` (centres unmarked) [Compound I8]: the Cytotoxicity activity result under setting [2] is given as “weak”. For `CC=CC(=O)OCC1(C)C(OC(=O)C=CC)CCC2(C)C1CCC1(C)C2CC=C2C3CC(C)(C)C(O)C(OC(=O)C=CC)C3(COC(=O)C=CC)C(O)CC21C` (centres unmarked) [Compound I9], under setting [2], the Cytotoxicity activity result was “weak”. `CC=CC(=O)OCC1(C)C(OC(=O)C=CC)CCC2(C)C1CCC1(C)C2CC=C2C3CC(C)(C)C(O)C(O)C3(COC(=O)C=CC)C(OC(=O)C=CC)CC21C` (centres unmarked) [Compound I10]: the Cytotoxicity activity result under setting [2] is reported as “weak”. With `CC=CC(=O)OCC1(C)C(OC(=O)C=CC)CCC2(C)C1CCC1(C)C2CC=C2C3CC(C)(C)C(OC(=O)C=CC)C(O)C3(COC(=O)C=CC)C(O)CC21C` (centres unmarked) [Compound I11], the Cytotoxicity activity result under setting [2] is on record as “weak”. As for `CC=CC(=O)OCC1(C)C(O)CCC2(C)C1CCC1(C)C2CC=C2C3CC(C)(C)C(O)C(OC(=O)C=CC)C3(COC(=O)C=CC)C(OC(=O)C=CC)CC21C` (centres unmarked) [Compound I12], the Cytotoxicity activity result under setting [2] is recorded as “weak”.

`CC=CC(=O)OCC1(C)C(O)CCC2(C)C1CCC1(C)C2CC=C2C3CC(C)(C)C(OC(=O)C=CC)C(O)C3(COC(=O)C=CC)C(OC(=O)C=CC)CC21C` (centres unmarked) [Compound I13]: under setting [2], the Cytotoxicity activity entry is “weak”. Take `CC=CC(=O)OCC1(C)C(OC(=O)C=CC)CCC2(C)C1CCC1(C)C2CC=C2C3CC(C)(C)C(O)C(OC(=O)C=CC)C3(COC(=O)C=CC)C(O)CC21C` (centres unmarked) [Compound I14]: the Cytotoxicity activity entry under setting [2] is on record as “weak”. As to `CC=CC(=O)OCC1(C)C(OC(=O)C=CC)CCC2(C)C1CCC1(C)C2CC=C2C3CC(C)(C)C(OC(=O)C=CC)C(OC(=O)C=CC)C3(COC(=O)C=CC)C(O)CC21C` (centres unmarked) [Compound I15], under setting [2], the Cytotoxicity activity result is listed as “weak”. Turning to `CC=CC(=O)OCC1(C)C(O)CCC2(C)C1CCC1(C)C2CC=C2C3CC(C)(C)C(OC(=O)C=CC)C(OC(=O)C=CC)C3(COC(=O)C=CC)C(OC(=O)C=CC)CC21C` (centres unmarked) [Compound I16], the Cytotoxicity activity entry under setting [2] was “weak”.

As for `CC=CC(=O)OCC1(C)C(OC(=O)C=CC)CCC2(C)C1CCC1(C)C2CC=C2C3CC(C)(C)C(OC(=O)C=CC)C(O)C3(COC(=O)C=CC)C(OC(=O)C=CC)CC21C` (centres unmarked) [Compound I17], the Cytotoxicity activity result under setting [2] is listed as “weak”. Consider `CC=CC(=O)OCC1(C)C(OC(=O)C=CC)CCC2(C)C1CCC1(C)C2CC=C2C3CC(C)(C)C(O)C(OC(=O)C=CC)C3(COC(=O)C=CC)C(OC(=O)C=CC)CC21C` (centres unmarked) [Compound I18], for which, under setting [2], the Cytotoxicity activity result is listed as “weak”. For the compound `CC=CC(=O)OCC1(C)C(OC(=O)C=CC)CCC2(C)C1CCC1(C)C2CC=C2C3CC(C)(C)C(OC(=O)C=CC)C(OC(=O)C=CC)C3(COC(=O)C=CC)C(OC(=O)C=CC)CC21C` (centres unmarked) [Compound I19], the Cytotoxicity activity result under setting [2] was “none”. For the compound `CC=CC(=O)OCC12C(O)CC3(C)C(=CCC4C5(C)CCC(O)C(C)(CO)C5CCC43C)C1CC(C)(C)C(OC(=O)C=CC)C2OC(=O)C=CC` (centres unmarked) [Compound I20], under setting [2], the Cytotoxicity activity result is “moderate”. As to `CC=CC(=O)OCC1(C)C(O)CCC2(C)C1CCC1(C)C2CC=C2C3CC(C)(C)C(OC(=O)C=CC)C(OC(=O)C=CC)C3(CO)C(O)CC21C` (centres unmarked) [Compound I21], the Cytotoxicity activity entry under setting [2] is listed as “moderate”. Consider `CC=CC(=O)OC1C(OC(=O)C=CC)C2(CO)C(OC(=O)C=CC)CC3(C)C(=CCC4C5(C)CCC(O)C(C)(CO)C5CCC43C)C2CC1(C)C` (centres unmarked) [Compound I22], for which the Cytotoxicity activity entry under setting [2] is “moderate”. Same read-out and setting: as for `CC=CC(=O)OC1C(OC(=O)C=CC)C2(CO)C(O)CC3(C)C(=CCC4C5(C)CCC(OC(=O)C=CC)C(C)(CO)C5CCC43C)C2CC1(C)C` (centres unmarked) [Compound I23], the entry is “moderate”; as for `CC=CC(=O)OC1C(OC(=O)C=CC)C2(CO)C(O)CC3(C)C(=CCC4C5(C)CCC(O)C(C)(CO)C5CCC43C)C2CC1(C)C` (centres unmarked) [Compound I24], “moderate”; as for `CC=CC(=O)OCC12C(O)CC3(C)C(=CCC4C5(C)CCC(O)C(C)(CO)C5CCC43C)C1CC(C)(C)C(OC(=O)C=CC)C2O` (centres unmarked) [Compound I25], “moderate”. In the case of `CC=CC(=O)OCC12C(O)CC3(C)C(=CCC4C5(C)CCC(O)C(C)(CO)C5CCC43C)C1CC(C)(C)C(O)C2OC(=O)C=CC` (centres unmarked) [Compound I26], under setting [2], the Cytotoxicity activity result is “moderate”. As to `CC=CC(=O)OCC12C(O)CC3(C)C(=CCC4C5(C)CCC(OC(=O)C=CC)C(C)(CO)C5CCC43C)C1CC(C)(C)C(O)C2O` (centres unmarked) [Compound I27], the Cytotoxicity activity entry under setting [2] is given as “moderate”.

As for `CC=CC(=O)OCC12C(OC(=O)C=CC)CC3(C)C(=CCC4C5(C)CCC(O)C(C)(CO)C5CCC43C)C1CC(C)(C)C(O)C2O` (centres unmarked) [Compound I28], the Cytotoxicity activity entry under setting [2] is recorded as “moderate”. Turning to `CC=CC(=O)OCC1(C)C(O)CCC2(C)C1CCC1(C)C2CC=C2C3CC(C)(C)C(OC(=O)C=CC)C(O)C3(CO)C(O)CC21C` (centres unmarked) [Compound I29], the Cytotoxicity activity result under setting [2] was “moderate”. On to `CC=CC(=O)OCC1(C)C(O)CCC2(C)C1CCC1(C)C2CC=C2C3CC(C)(C)C(O)C(OC(=O)C=CC)C3(CO)C(O)CC21C` (centres unmarked) [Compound I30], for which the Cytotoxicity activity entry under setting [2] was “moderate”.
